The text below walks through data of PubChem BioAssay (NCI).

Common to all, as to assay: inhibition of tumour cell growth, NCI panel, 48 h
The subject of assay [1] is EKVX NSCLC.
The test system of assay [2] is UO-31 renal.
Assay [3] relates to MOLT-4 leukemia.
Assay [4] deals with TK-10 renal.
Assay [5] deals with SK-MEL-2 melanoma.
Assay [6] relates to M14 melanoma.
For assay [7], the system named is OVCAR-3 ovarian.
For assay [8], the system named is OVCAR-5 ovarian.

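Following 48 hours of exposure in 96-well plates, responses at five concentrations were used to interpolate endpoints linearly. GI50 is the concentration that inhibits growth by half. At the TGI there is no net growth.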

For the compound `COc1ccc(OC)c(N2CC(N)C2=O)c1` (stereo not drawn), the TGI in assay [1], in assay [2], in assay [3], in assay [4], in assay [5] and in assay [6] was above 100 µM in each case. In assay [7], this compound displayed a TGI above 100 µM.
Regarding `O=c1ccc2ccccc2cc1[O-].O=c1ccc2ccccc2cc1[O-].[O]=[U+2]=[O]`, the GI50 in assay [1] was 10.4 µM; in assay [8], 30.1 µM; in assay [3] it was 4.71 µM; in assay [4], 17 µM; in assay [5], 11.7 µM; in assay [6], 16.9 µM. In addition, the GI50 in assay [7] is 8.28 µM. Besides, the TGI in assay [1] was 55.7 µM; in assay [8], above 100 µM; in assay [3], 46.2 µM; in assay [4], 66.3 µM; in assay [5], 38.1 µM; in assay [6], 54.5 µM. The same compound had a TGI in assay [7] of 50.1 µM.
Take `O=C1C=CC(=O)c2nc3c(cc21)CCC3`: the TGI in assay [2] is above 100 µM; in assay [8], above 100 µM; in assay [3], 33.7 µM; in assay [4], 32.7 µM; in assay [6] it was 31 µM; in assay [7], 32 µM.
For the compound `CC(=O)NNc1nc(C)c(C(=O)/C=C/c2ccc(NC(C)=O)cc2)s1`, the TGI in assay [1], in assay [2], in assay [8], in assay [3], in assay [4] and in assay [5] was above 100 µM each time. Further, in assay [7], the TGI was above 100 µM.
For `CC(=O)OCCOCNC(=S)N/N=C(\C)c1cnccn1`, the TGI is above 100 µM in assay [1]; above 100 µM in assay [2]; 40.5 µM in assay [8]; above 100 µM in assay [3]; above 100 µM in assay [4]; above 100 µM in assay [5]. Also, the TGI in assay [6] was 54.7 µM; in assay [7] it was above 100 µM.
In the case of `CCCCN(CCCC)C(=O)C(=O)C(C(=O)c1ccc(OC)cc1)c1ccc(OC)cc1` (stereo not drawn), the TGI in assay [1], in assay [2], in assay [8], in assay [3], in assay [4] and in assay [5] was above 100 µM throughout. Moreover, the TGI in assay [6] and in assay [7] was above 100 µM each time.
Consider `CC(C)(C)c1cc2ccc(C(N)=O)cc2c(=O)[nH]1`, for which the TGI in assay [1], in assay [2], in assay [8], in assay [3], in assay [4] and in assay [5] was above 100 µM throughout. For the same compound, the TGI in assay [6] and in assay [7] was above 100 µM in each case.
As to `C=CC[C@H](C[C@H](C[C@H](C[C@H](C[C@H](C[C@H](C[C@H](C[C@H](C[C@H](C[C@H](CCCCC)OC)OC)OC)OC)OC)OC)OC)OC)OC)OC`, the TGI in assay [1], in assay [2], in assay [8], in assay [3], in assay [4] and in assay [5] was above 100 µM throughout. Further, the TGI in assay [6] and in assay [7] was above 100 µM each time.
Consider `Cc1ccc(/C=C/C(=O)CCN(C)C)cc1`, for which the TGI in assay [2] is 33.8 µM; in assay [8], above 100 µM; in assay [3], 51.7 µM; in assay [4], 30.2 µM; in assay [6] it was 38.7 µM; in assay [7], 39.4 µM.
`O=C(/C=C/c1ccc([N+](=O)[O-])cc1)c1ccc(NCc2nc3ccccc3[nH]2)cc1`: the TGI in assay [1] was found to be 22.2 µM; in assay [2], 16.3 µM; in assay [8] it was 26.3 µM; in assay [3] it was 10.2 µM; in assay [4], 19.9 µM; in assay [5], 29.7 µM. Moreover, the TGI in assay [6] turned out to be 24 µM; in assay [7] it was 11.8 µM.
Take `O=c1c(-c2ccccc2)c2oc(c1-c1ccccc1)CSCc1cccc(c1)CSC2`: the TGI in assay [1], in assay [2], in assay [8], in assay [3], in assay [4] and in assay [5] was above 100 µM in each case. Also, the TGI was above 100 µM in assay [6] and 77 µM in assay [7].
As for `COc1nc(NC2OC(COC(C)=O)C(OC(C)=O)C(OC(C)=O)C2OC(C)=O)c2c(OC(C)=O)cc(=O)oc2n1` (stereo not drawn), the TGI in assay [1], in assay [2], in assay [8], in assay [3], in assay [4] and in assay [5] was above 100 µM in each case. For the same compound, the TGI in assay [6] and in assay [7] was above 100 µM each time.
For the compound `CCc1c(OC(C)=O)c2c(NC3OCC(OC(C)=O)C(OC(C)=O)C3OC(C)=O)nc(SC)nc2oc1=O` (stereo not drawn), the TGI in assay [1], in assay [2], in assay [8], in assay [3], in assay [4] and in assay [5] was above 100 µM in each case. The TGI in assay [6] and in assay [7] was above 100 µM in each case.
In the case of `S=c1sc2c(n1-c1ccccc1)NC=NC2S` (stereo not drawn), the TGI in assay [1], in assay [2], in assay [8], in assay [3], in assay [4] and in assay [5] was above 100 µM throughout. Also, the TGI in assay [6] and in assay [7] was above 100 µM throughout.
Regarding `CC(=O)O/N=C(/C)c1ccccc1O`, the TGI in assay [1], in assay [2], in assay [8], in assay [3], in assay [4] and in assay [5] was above 100 µM in each case. Moreover, the TGI in assay [6] and in assay [7] was above 100 µM throughout.
As to `Cc1ccc(Oc2ccc(C)cc2N)cc1`, the TGI in assay [1], in assay [2], in assay [8], in assay [3], in assay [4] and in assay [5] was above 100 µM throughout. Also, the TGI in assay [6] and in assay [7] was above 100 µM each time.
For the compound `C/C(CCn1[nH]c(=O)ccc1=O)=N\NC(=O)C(=O)NN`, the TGI in assay [1], in assay [2], in assay [8], in assay [3], in assay [4] and in assay [5] was above 100 µM each time. Also, the TGI in assay [6] and in assay [7] was above 100 µM in each case.
Turning to `CCCCCC[C@@H]1CCC2C(CO)[C@@H](O)CC[C@@H]2C1` (stereo partly drawn), the TGI in assay [1] was found to be 32.7 µM; in assay [2], 38.7 µM; in assay [8], 33.9 µM; in assay [3], 57 µM; in assay [5], 43.3 µM; in assay [6], 31.3 µM. The compound also showed a TGI in assay [7] of 29.3 µM.
On to `O=C(Nc1ccccc1-c1nn(C(=S)Nc2ccccc2)c(=S)n(C(=S)Nc2ccccc2)c1=O)C(F)(F)F`, for which the TGI was 98.2 µM in assay [1]; 50.3 µM in assay [2]; above 100 µM in assay [8]; above 77.1 µM in assay [3]; above 96.3 µM in assay [4]; above 66.7 µM in assay [5]. In addition, the TGI in assay [6] was 53.3 µM; in assay [7] it was above 72.5 µM.
In the case of `c1ccc(NCn2cnc3ccccc32)cc1`, the TGI in assay [1], in assay [2], in assay [8], in assay [3], in assay [4] and in assay [5] was above 100 µM each time. The same compound yielded a TGI in assay [7] above 100 µM.
For the compound `N[C@@H]1CCCC[C@@H]1N.O=P([O-])([O-])CN(CCN(CP(=O)([O-])[O-])CP(=O)([O-])[O-])CP(=O)([O-])[O-].[Pt+2]`, the GI50 in assay [1], in assay [2], in assay [8], in assay [3], in assay [4] and in assay [5] was above 25 µM each time. The GI50 in assay [6] and in assay [7] was above 25 µM throughout. Moreover, the TGI in assay [1], in assay [2], in assay [8], in assay [3], in assay [4] and in assay [5] was above 25 µM throughout. Besides, the TGI in assay [6] and in assay [7] was above 25 µM each time.
With `CCOC(=O)C1=C(C(=O)OCC)C2c3ccccc3C=CN2C(C(=O)OCC)=C(SC)S1` (stereo not drawn), the TGI in assay [1], in assay [2], in assay [8], in assay [3], in assay [4] and in assay [5] was above 100 µM in each case. Moreover, the TGI in assay [6] and in assay [7] was above 100 µM in each case.
As to `COC(=O)CC(c1ccccc1)C1(c2ccccc2)SCCS1` (stereo not drawn), the TGI in assay [1], in assay [8], in assay [3], in assay [4], in assay [5] and in assay [7] was above 290 µM each time.
